Data on two compounds can be found in patent EP0207696A1, “Dialkylaminotetrahydrobenzothiazoles and oxazoles” (ELI LILLY AND COMPANY, priority 1985, dated 1987).

One experiment concerns conscious SHR. In words: hypotensive action in conscious SHR. It is filed as in vivo. To be noted: 1 mg/kg i.v. On the procedure:
In another test for hypotensive action conscious SHR, cannulated in the femoral artery and vein, were used. The drug was administered i.v. (±)-2-Amino-6-dimethylamino-5,6,7,8-tetrahydrobenzothiazole was tested in this system as the dihydrobromide salt at a 1 mg/kg dose. In the table, column 1 gives time in minutes after injection and columns 2 and 3 the mean percent decrease in arterial pressure and heart rate respectively for that time interval.

The subject of a further experiment is prolactin secretion. In words: inhibition of prolactin secretion in reserpinized rats. It is filed as in vivo, rats of the Sprague-Dawley strain. The note with it: percent prolactin inhibition; 50 mcg/kg intraperitoneally; serum one hour after treatment; reserpine-pretreated male rats. The source says:
As previously stated, the compounds of this invention (wherein neither R^3 nor R^4 is H) are receptor agonists; ie, they are capable of increasing the quantities of various neurohormones--dopamine and norepi- nephrine in particular--available for interaction with specific receptors. For example, the compound according to XX wherein R^1 and R^2 are H and R^3 and R^4 are both n-propyl, is a specific dopamine D-2 agonist.
Adult male rats of the Sprague-Dawley strain weighing about 200 g were housed in an air-conditioned room with controlled lighting (lights on 6 a.m. - 8 p.m.) and fed lab chow and water ad libitum. Each rat received an intraperitoneal injection of 2.0 mg of reserpine in aqueous suspension 18 hours before administration of the test drug. The purpose of the reserpine was to keep the rat prolactin levels uniformly elevated. The compound was dissolved in 10 percent ethanol, and injected intraperitoneally to groups of ten rats at preselected dose levels. A control group of 10 intact males received an equivalent amount of 10 percent ethanol. One hour after treatment, all rats were killed by decapitation, and 150 µl aliquots of serum were assayed for prolactin.
The difference between the prolactin levels of the treated rats and the control rats, divided by the prolactin level of the control rats gives the percent inhibition of prolactin secretion attributable to the given dose. […]

Experiment [1] deals with anesthetized spontaneously hypertensive rats. In words: blood pressure in anesthetized spontaneously hypertensive rats. The class given is in vivo. The note with it: anesthetized SHR. On the procedure: Compounds according to XX, particularly those wherein both R^3 and R^4 are methyl, reduce the blood pressure of anesthetized spontaneously hypertensive rats, as illustrated by the following experiment: • Adult male spontaneously hypertensive rats (SHR) (Taconic Farms, Germantown, New York), weighing approximately 300 g. were anesthetized with pentobarbital sodium (60 mg./kg., i.p.). The trachea was cannulated and the SHR respired room air. Pulsatile arterial blood pressure was measured from a cannulated carotid artery using a Statham transducer (P23 ID). Mean arterial blood pressure was calculated as diastolic blood pressure plus 1/3 pulse pressure. Cardiac rate was monitored by a cardiotachometer which was triggered by the systolic pressure pulse. Drug solutions were administered i.v. through a catheter placed in a femoral vein.
Arterial blood pressure and cardiac rate were recorded on a multichannel oscillograph (Beckman, Model R511A). Fifteen minutes were allowed to elapse following surgery for equilibration of the preparation.
Table 3 which follows gives the results of this test using (±)-2-amino-6-di-n-propyl-5,6,7,8-tetra- hydrobenzothiazole dihydrobromide. In Table 3, column 1 gives the dose level, column 2, the change in mean arterial blood pressure.

The subject of experiment [2] is 6-hydroxydopamine-lesioned rats. In words: turning behavior in 6-hydroxydopamine-lesioned rats. The class given is in vivo. To be noted: 1000 mcg/kg; first 15 minutes after the end of the latency period. The source says: Dopamine agonists are also known to affect turning behavior in 6-hydroxydopamine-lesioned rats in a test procedure designed to uncover compounds useful for the treatment of Parkinsonism. In this test, nigroneostriatal-lesioned rats are employed, as prepared by the procedure of Ungerstedt and Arbuthnott, Brain Res, 24, 485 (1970). A compound having dopamine agonist activity causes the rats to turn in circles contralateral to the side of the lesion. After a latency period, which varies from compound to compound, the number of turns is counted over a 15-minute period.
Results obtained from such testing for (±)-2-amino-6-di-n-propylamino-5,6,7,8-tetrahydrobenzothiazole dihydrobromide are set forth in Table 2 below. In the table, column 1 gives the dose and column 2 the average number of turns observed in first 15 minutes after the end of the latency period.

`CN(C)C1CCc2nc(N)sc2C1` (racemic) [(±)-2-Amino-6-dimethylamino-5,6,7,8-tetrahydrobenzothiazole]: the “PERCENT CHANGE FROM CONTROL Blood Pressure” value is given as -3.6% in the experiment with conscious SHR (5 minutes after injection); -17.1% in the experiment with conscious SHR (15 minutes after injection); -18.6% in the experiment on conscious SHR (30 minutes after injection); -16.9% in the experiment on conscious SHR (45 minutes after injection); -17.2% with conscious SHR (60 minutes after injection); -16.9% in the experiment with conscious SHR (90 minutes after injection). In addition, the “PERCENT CHANGE FROM CONTROL Blood Pressure” value in the experiment on conscious SHR (120 minutes after injection) is -15.8%; in the experiment on conscious SHR (180 minutes after injection), -14.7%. For the same compound, the “PERCENT CHANGE FROM CONTROL Heart Rate” value in the experiment with conscious SHR (5 minutes after injection) was -12.3%; with conscious SHR (15 minutes after injection), -17.7%; in the experiment with conscious SHR (30 minutes after injection), -15.5%; with conscious SHR (45 minutes after injection) it was -8.3%; in the experiment on conscious SHR (60 minutes after injection) it was -5.2%; in the experiment on conscious SHR (90 minutes after injection), -0.7%. The “PERCENT CHANGE FROM CONTROL Heart Rate” value in the experiment with conscious SHR (120 minutes after injection) and in the experiment on conscious SHR (180 minutes after injection) was -4.1% throughout.

Broadly, the % Inhibition is the change of the read-out against control, counted positive when it falls. For the compound `CCCN(CCC)C1CCc2nc(N)sc2C1` (racemic) [(±)-2-Amino-6-di-n-propylamino-5,6,7,8-tetrahydrobenzothiazole], the “% Inhibition” value in the experiment on prolactin secretion is given as 30%. In addition, the “Decrease in Mean Arterial Blood Pressure” value in experiment [1] (1 mcg/kg i.v.) is recorded as -16.1 ± 2.4; in experiment [1] (10 mcg/kg i.v.) it was -21.0 ± 2.0; in experiment [1] (100 mcg/kg i.v.) it was -34.1 ± 3.2; in experiment [1] (1000 mcg/kg i.v.) it was “+13.5 ± 4.4”. In experiment [2], the “Average number of Turns” value is recorded as 51.
